Data from ChEMBL document CHEMBL3885861, “Open TG-GATES”.

Species: Rattus norvegicus
Test: Open TG-GATES - Regimen: Daily Repeat
Type: toxicity, organism-based, Sprague-Dawley
Design: regimen Daily Repeat, gender Male, age 6 weeks
Conditions: in vivo, po, route gavage; for APTT / Bas / Eos / Fbg / Hb / Ht / Lym / MCH / MCHC / MCV / Mono / Neu / PT / Plat / RBC / Ret / WBC: tissue Blood; for KIDNEY_L / KIDNEY_R / KIDNEY_TOTAL: tissue Kidney; for LIVER: tissue Liver; for A/G / ALP / ALT / AST / BUN / CRE / Ca / Cl / DBIL / GLC / IP / K / LDH / Na / PL / RALB / TBIL / TC / TG / TP / gamma-GTP: tissue Plasma
[1] = 300 mg/kg, 72 h, dose level Middle, time 3 day
[2] = 300 mg/kg, […], dose level Middle, time 7 day
[3] = 300 mg/kg, […], dose level Middle, time 14 day
[4] = 300 mg/kg, […], dose level Middle, time 28 day
[5] = 1000 mg/kg, 72 h, dose level High, time 3 day
[6] = 1000 mg/kg, […], dose level High, time 7 day
[7] = 1000 mg/kg, […], dose level High, time 14 day
[8] = 1000 mg/kg, […], dose level High, time 28 day

## CCOc1ccc(NC(=O)CC(C)O)cc1 (centres undefined) [BUCETIN]
[1]
  TERMINAL_BW: 247.8 g
  APTT: 18.9 s
  Bas: 0%
  Eos: 1.2%
  Fbg: 291.2 mg/dL
  Hb: 13.1 g/dL
  Ht: 39.1%
  Lym: 72.8%
  MCH: 20.5 pg
  MCHC: 33.4%
  MCV: 61.3 fL
  Mono: 3.4%
  Neu: 21.6%
  PT: 14.2 s
  Plat: 123.5 x10_4/uL
  RBC: 638.8 x10_4/ul
  Ret: 6.8%
  WBC: 109.9 x10_2/uL
  KIDNEY_L: 1 g
  KIDNEY_R: 1 g
  KIDNEY_TOTAL: 2 g
  LIVER: 11.7 g
  A/G: 0.9
  ALP: 1855.6 IU/L
  ALT: 39.2 IU/L
  AST: 68.2 IU/L
  BUN: 15.2 mg/dL
  CRE: 0.2 mg/dL
  Ca: 10.8 mg/dL
  Cl: 104.8 meq/L
  DBIL: 0.024 mg/dL
  GLC: 184 mg/dL
  IP: 6.9 mg/dL
  K: 4.2 meq/L
  LDH: 99.6 IU/L
  Na: 143.4 meq/L
  PL: 164.2 mg/dL
  RALB: 2.7 g/dL
  TBIL: 0.052 mg/dL
  TC: 82.8 mg/dL
  TG: 116.2 mg/dL
  TP: 5.8 g/dL
  gamma-GTP: 1 IU/L
[2]
  TERMINAL_BW: 289.1 g
  APTT: 16.1 s
  Bas: 0%
  Eos: 1%
  Fbg: 278.6 mg/dL
  Hb: 13.4 g/dL
  Ht: 39.6%
  Lym: 74%
  MCH: 21.1 pg
  MCHC: 33.7%
  MCV: 62.5 fL
  Mono: 2.8%
  Neu: 21.6%
  PT: 14 s
  Plat: 120 x10_4/uL
  RBC: 634.2 x10_4/ul
  Ret: 6.8%
  WBC: 107.3 x10_2/uL
  KIDNEY_L: 1.2 g
  KIDNEY_R: 1.1 g
  KIDNEY_TOTAL: 2.3 g
  LIVER: 13.6 g
  A/G: 0.8
  ALP: 1676.6 IU/L
  ALT: 42.4 IU/L
  AST: 67.4 IU/L
  BUN: 15.8 mg/dL
  CRE: 0.2 mg/dL
  Ca: 11 mg/dL
  Cl: 105.2 meq/L
  DBIL: 0.018 mg/dL
  GLC: 190.6 mg/dL
  IP: 6.6 mg/dL
  K: 4.2 meq/L
  LDH: 115.2 IU/L
  Na: 143.8 meq/L
  PL: 178 mg/dL
  RALB: 2.7 g/dL
  TBIL: 0.04 mg/dL
  TC: 91.2 mg/dL
  TG: 131.2 mg/dL
  TP: 5.9 g/dL
  gamma-GTP: 1 IU/L
[3]
  TERMINAL_BW: 360.7 g
  APTT: 15.9 s
  Bas: 0%
  Eos: 1%
  Fbg: 312 mg/dL
  Hb: 14.4 g/dL
  Ht: 42.4%
  Lym: 75.2%
  MCH: 20.8 pg
  MCHC: 34.1%
  MCV: 61 fL
  Mono: 2.4%
  Neu: 21.2%
  PT: 13.8 s
  Plat: 113 x10_4/uL
  RBC: 695.6 x10_4/ul
  Ret: 4.7%
  WBC: 106.6 x10_2/uL
  KIDNEY_L: 1.4 g
  KIDNEY_R: 1.4 g
  KIDNEY_TOTAL: 2.7 g
  LIVER: 17.2 g
  A/G: 0.8
  ALP: 1729.4 IU/L
  ALT: 34.2 IU/L
  AST: 63 IU/L
  BUN: 15 mg/dL
  CRE: 0.2 mg/dL
  Ca: 11.2 mg/dL
  Cl: 104 meq/L
  DBIL: 0.02 mg/dL
  GLC: 189.4 mg/dL
  IP: 6.9 mg/dL
  K: 4 meq/L
  LDH: 72.8 IU/L
  Na: 143.4 meq/L
  PL: 179.2 mg/dL
  RALB: 2.8 g/dL
  TBIL: 0.048 mg/dL
  TC: 79.8 mg/dL
  TG: 208.6 mg/dL
  TP: 6.3 g/dL
  gamma-GTP: 1 IU/L
[4]
  TERMINAL_BW: 431.8 g
  APTT: 18.8 s
  Bas: 0%
  Eos: 1.4%
  Fbg: 274 mg/dL
  Hb: 14.7 g/dL
  Ht: 42.6%
  Lym: 74.6%
  MCH: 19.3 pg
  MCHC: 34.5%
  MCV: 56 fL
  Mono: 2.2%
  Neu: 20.6%
  PT: 14.1 s
  Plat: 106.2 x10_4/uL
  RBC: 760 x10_4/ul
  Ret: 3.5%
  WBC: 138.7 x10_2/uL
  KIDNEY_L: 1.6 g
  KIDNEY_R: 1.6 g
  KIDNEY_TOTAL: 3.2 g
  LIVER: 18.4 g
  A/G: 0.8
  ALP: 1081.4 IU/L
  ALT: 39 IU/L
  AST: 62.4 IU/L
  BUN: 15.2 mg/dL
  CRE: 0.3 mg/dL
  Ca: 11.2 mg/dL
  Cl: 104.8 meq/L
  DBIL: 0.028 mg/dL
  GLC: 188.8 mg/dL
  IP: 6.3 mg/dL
  K: 3.8 meq/L
  LDH: 78.8 IU/L
  Na: 145.4 meq/L
  PL: 170.6 mg/dL
  RALB: 2.8 g/dL
  TBIL: 0.07 mg/dL
  TC: 77.2 mg/dL
  TG: 188.2 mg/dL
  TP: 6.3 g/dL
  gamma-GTP: 1 IU/L
[5]
  TERMINAL_BW: 228.7 g
  APTT: 18.5 s
  Bas: 0%
  Eos: 0.8%
  Fbg: 270.2 mg/dL
  Hb: 12.8 g/dL
  Ht: 38.4%
  Lym: 72.6%
  MCH: 20.7 pg
  MCHC: 33.4%
  MCV: 61.9 fL
  Mono: 2.8%
  Neu: 22.6%
  PT: 14.1 s
  Plat: 123.8 x10_4/uL
  RBC: 620 x10_4/ul
  Ret: 2.9%
  WBC: 111.1 x10_2/uL
  KIDNEY_L: 1.1 g
  KIDNEY_R: 1 g
  KIDNEY_TOTAL: 2.1 g
  LIVER: 11.8 g
  A/G: 0.9
  ALP: 1511.6 IU/L
  ALT: 41.2 IU/L
  AST: 74 IU/L
  BUN: 15.4 mg/dL
  CRE: 0.2 mg/dL
  Ca: 10.6 mg/dL
  Cl: 106.8 meq/L
  DBIL: 0.028 mg/dL
  GLC: 168 mg/dL
  IP: 6.2 mg/dL
  K: 4.3 meq/L
  LDH: 76 IU/L
  Na: 144.6 meq/L
  PL: 161.4 mg/dL
  RALB: 2.6 g/dL
  TBIL: 0.06 mg/dL
  TC: 78.6 mg/dL
  TG: 102.2 mg/dL
  TP: 5.6 g/dL
  gamma-GTP: 1.2 IU/L
[6]
  TERMINAL_BW: 268.8 g
  APTT: 20.3 s
  Bas: 0%
  Eos: 1%
  Fbg: 270.6 mg/dL
  Hb: 12.7 g/dL
  Ht: 38.7%
  Lym: 67.2%
  MCH: 21 pg
  MCHC: 32.9%
  MCV: 64 fL
  Mono: 3.4%
  Neu: 27.6%
  PT: 14.3 s
  Plat: 126.9 x10_4/uL
  RBC: 606 x10_4/ul
  Ret: 9.2%
  WBC: 166.9 x10_2/uL
  KIDNEY_L: 1.1 g
  KIDNEY_R: 1.1 g
  KIDNEY_TOTAL: 2.3 g
  LIVER: 12.7 g
  A/G: 0.8
  ALP: 1387.6 IU/L
  ALT: 50 IU/L
  AST: 79.4 IU/L
  BUN: 16 mg/dL
  CRE: 0.2 mg/dL
  Ca: 10.9 mg/dL
  Cl: 106.2 meq/L
  DBIL: 0.032 mg/dL
  GLC: 180.8 mg/dL
  IP: 6.6 mg/dL
  K: 4.4 meq/L
  LDH: 97.4 IU/L
  Na: 144.4 meq/L
  PL: 162.8 mg/dL
  RALB: 2.8 g/dL
  TBIL: 0.08 mg/dL
  TC: 74.6 mg/dL
  TG: 133.4 mg/dL
  TP: 6 g/dL
  gamma-GTP: 1 IU/L
[7]
  TERMINAL_BW: 329.1 g
  APTT: 21.6 s
  Bas: 0.8%
  Eos: 0.6%
  Fbg: 295.4 mg/dL
  Hb: 12.9 g/dL
  Ht: 39.7%
  Lym: 69.2%
  MCH: 22.9 pg
  MCHC: 32.7%
  MCV: 70.1 fL
  Mono: 3%
  Neu: 26.2%
  PT: 14.3 s
  Plat: 126.3 x10_4/uL
  RBC: 567.8 x10_4/ul
  Ret: 10.4%
  WBC: 123.6 x10_2/uL
  KIDNEY_L: 1.3 g
  KIDNEY_R: 1.3 g
  KIDNEY_TOTAL: 2.7 g
  LIVER: 14.6 g
  A/G: 0.8
  ALP: 1241.8 IU/L
  ALT: 42.6 IU/L
  AST: 73.4 IU/L
  BUN: 14.2 mg/dL
  CRE: 0.2 mg/dL
  Ca: 10.8 mg/dL
  Cl: 105.8 meq/L
  DBIL: 0.036 mg/dL
  GLC: 170.4 mg/dL
  IP: 6.5 mg/dL
  K: 4.4 meq/L
  LDH: 97.8 IU/L
  Na: 143.6 meq/L
  PL: 150.8 mg/dL
  RALB: 2.8 g/dL
  TBIL: 0.1 mg/dL
  TC: 71.6 mg/dL
  TG: 91.2 mg/dL
  TP: 6.1 g/dL
  gamma-GTP: 1 IU/L
[8]
  TERMINAL_BW: 402.4 g
  APTT: 19.3 s
  Bas: 0.6%
  Eos: 1.2%
  Fbg: 278.2 mg/dL
  Hb: 14.3 g/dL
  Ht: 42.1%
  Lym: 78.2%
  MCH: 23.2 pg
  MCHC: 34%
  MCV: 68.4 fL
  Mono: 2.2%
  Neu: 17.4%
  PT: 14.4 s
  Plat: 102.2 x10_4/uL
  RBC: 618.4 x10_4/ul
  Ret: 8%
  WBC: 137.4 x10_2/uL
  KIDNEY_L: 1.6 g
  KIDNEY_R: 1.5 g
  KIDNEY_TOTAL: 3.1 g
  LIVER: 17.3 g
  A/G: 0.8
  ALP: 1352.6 IU/L
  ALT: 36.4 IU/L
  AST: 65 IU/L
  BUN: 16.8 mg/dL
  CRE: 0.3 mg/dL
  Ca: 11 mg/dL
  Cl: 104 meq/L
  DBIL: 0.042 mg/dL
  GLC: 182.2 mg/dL
  IP: 6.5 mg/dL
  K: 4 meq/L
  LDH: 93.4 IU/L
  Na: 143.8 meq/L
  PL: 155.8 mg/dL
  RALB: 2.9 g/dL
  TBIL: 0.1 mg/dL
  TC: 71.2 mg/dL
  TG: 117.2 mg/dL
  TP: 6.4 g/dL
  gamma-GTP: 1.4 IU/L
